Here are results for 32 compounds from US12215116B2, “Arginase inhibitors and methods of use” (Merck Sharp & Dohme LLC, priority 2018, dated 2025).

This test concerns the target T1, Arginase (ARG1 enzyme) (Homo sapiens, UniProt P05089).
T1 construct: made in house; host or cells: Escherichia coli
T1 sequence (P05089 1-322): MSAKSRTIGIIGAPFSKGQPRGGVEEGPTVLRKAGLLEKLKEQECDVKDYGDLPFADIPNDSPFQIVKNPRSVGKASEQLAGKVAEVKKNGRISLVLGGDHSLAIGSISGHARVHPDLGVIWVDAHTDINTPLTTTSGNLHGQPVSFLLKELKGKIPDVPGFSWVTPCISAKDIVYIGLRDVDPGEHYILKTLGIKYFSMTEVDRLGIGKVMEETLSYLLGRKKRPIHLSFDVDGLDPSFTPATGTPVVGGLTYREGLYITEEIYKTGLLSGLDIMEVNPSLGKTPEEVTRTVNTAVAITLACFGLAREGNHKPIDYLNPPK
The experiment in a line: Arginase Thioornithine Generating Assay (TOGA). It counts as biochemical. To be noted: 1.88 nM arginase, thioarginine substrate, fluorescence readout. On the procedure:
Arginase Thioornithine Generating Assay (TOGA)
Compounds were serially diluted in ten 3-fold steps in DMSO starting from 10 mM DMSO stocks. Compound dilutions or DMSO alone were then dispensed from the dilution plate into a Greiner black 384-well assay plate (catalog #781086) using an Echo 555 acoustic liquid handler (Labcyte).
Arginase protein was recombinantly expressed in Escherichia coli. Purified protein was then diluted in assay buffer (50 mM Tris pH 7.5, 50 mM NaCl, 1 mM manganese chloride, 0.05% bovine serum albumin to obtain a final Arginase concentration of 1.88 nM. Arginase solution (20 μL) or buffer alone (20 μL) were dispensed to wells of the assay plate using a BioRAPTR liquid dispenser (Beckman Coulter). Assay plates containing compound and ARG1 enzyme were incubated at room temperature for 30 minutes. Afterwards, 5 μL of 2.5 mM thioarginine (Cayman Chemicals) in assay buffer were added to each well of the assay plate using a BioRAPTR liquid dispenser. Plates were incubated at room temperature for 60 minutes and reactions were quenched by addition of 15 μL of […] 7-Diethylamine-3-(4-maleimidophenyl)-4-methylcoumarin (Sigma Chemical) in 70% ethanol. Plates were briefly shaken to mix and the fluorescence was measured in an Spectramax plate reader (Molecular Devices) with a 410 nm excitation wavelength and an 490 nm emission wavelength.
Potencies were calculated by […] to the four parameter logistic IC50 equation.

For `O=C(O)[C@@]1(CCN2CCCC2)NCC[C@H]1CCCB(O)O` [Example 55], the IC50 (in general, the concentration that inhibits the measured activity by half) is 15.9 nM. The result for `C[C@@]1(CCCB(O)O)[C@@H](CN)CN[C@@H]1C(=O)O` [Example 77, (2S,3R,4S)-4-(aminomethyl)-3-(3-boronopropyl)-3-methylpyrrolidine-2-carboxylic acid] reads 85 nM. The same measure for `NC[C@]1(C(=O)O)NCC[C@H]1CCCB(O)O` (single isomer, unassigned) [Example 57B]: 5710 nM; for `CO[C@H]1CN[C@H](C(=O)O)[C@@H]1CCCB(O)O` [Example 36, (2S,3S,4R)-3-(3-boronopropyl)-4-methoxypyrrolidine-2-carboxylic acid]: 46.1 nM; for `OCC1NCCC1CCCB(O)O` (centres unmarked) [Example 12, {3-[2-(hydroxymethyl)pyrrolidin-3-yl]propyl}boronic acid]: 3810 nM. The same measure for `N[C@H](C(=O)N[C@H]1CN[C@H](C(=O)O)[C@@H]1CCCB(O)O)C1Cc2ccccc2C1` [Example 48, (2S,3R,4R)-4-((S)-2-amino-2-(2,3-dihydro-1H-inden-2-yl)acetamido)-3-(3-boronopropyl)pyrrolidine-2-carboxylic acid]: 2 nM; for `O=C(O)[C@@H]1NCC[C@H]1CCCB(O)O` [Example 15A, (3R)-3-[3-(dihydroxyboranyl)propyl]-D-proline]: > 10000 nM; for `NC[C@@H]1C[C@@H](CCCB(O)O)[C@@H](C(=O)O)N1` [Example 60A, (2S,3R,5S)-5-(aminomethyl)-3-(3-boronopropyl)pyrrolidine-2-carboxylic acid]: 29.5 nM. With `CC(C)[C@](C)(N)C(=O)N[C@H]1CN[C@H](C(=O)O)[C@@H]1CCCB(O)O` [Example 47, (2S,3R,4R)-4-((S)-2-amino-2,3-dimethylbutanamido)-3-(3-boronopropyl)pyrrolidine-2-carboxylic acid], the IC50 was determined as 29 nM.

With `NC1CN[C@H](C(=O)O)C1CCCB(O)O` (single isomer, unassigned) [Example 33B], the IC50 was > 10000 nM. Consider `CC(C)C[C@H](N)C(=O)N[C@H]1CN[C@H](C(=O)O)[C@@H]1CCCB(O)O` [Example 42, (2S,3R,4R)-4-((S)-2-amino-4-methylpentanamido)-3-(3-boronopropyl)pyrrolidine-2-carboxylic acid], for which inhibition was half-maximal at 1.58 nM (IC50). The same measure for `O=C(O)C1NCCCC1CCCB(O)O` (centres unmarked) [Example 1, 3-[3-(dihydroxyboranyl)propyl]piperidinyl-2-carboxylic acid]: 660 nM; for `O=C(O)[C@H]1NC[C@H](NCC(F)F)[C@H]1CCCB(O)O` [Example 27, (2S,3R,4R)-3-(3-boronopropyl)-4-((2,2-difluoroethyl)amino)pyrrolidine-2-carboxylic acid]: 128 nM; for `NCC1CN[C@H](C(=O)O)C1CCCB(O)O` (stereo partly drawn) [Example 34, (2S)-4-(aminomethyl)-3-(3-boronopropyl)pyrrolidine-2-carboxylic acid]: 3450 nM. The same measure for `N[C@@]1(C(=O)O)CNC[C@@]1(CO)CCCB(O)O` [Example 94C]: > 10000 nM; for `C[C@H](N)C(=O)N[C@H]1CN[C@H](C(=O)O)[C@@H]1CCCB(O)O` [Example 41, (2S,3R,4R)-4-((S)-2-aminopropanamido)-3-(3-boronopropyl)pyrrolidine-2-carboxylic acid]: 13.6 nM; for `O=C(O)C1NCCNC1CCCB(O)O` (centres unmarked) [Example 7, 3-[3-(dihydroxyboranyl)propyl]piperazine-2-carboxylic acid]: 99000 nM. The same measure for `O=C(O)C1(CCN2CCCCC2)NCCCC1CCCB(O)O` (centres unmarked) [Example 2, 3-[3-(dihydroxyboranyl)propyl]-2-[2-(piperidin-1-yl)ethyl]piperidinyl-2-carboxylic acid]: 396 nM. `N[C@H](C(=O)N[C@H]1CN[C@H](C(=O)O)[C@@H]1CCCB(O)O)C1CCCC1` [Example 40, (2S,3R,4R)-4-((S)-2-amino-2-cyclopentylacetamido)-3-(3-boronopropyl)pyrrolidine-2-carboxylic acid] showed an IC50 of 0.778 nM. The same measure for `C[C@@]1(CCCB(O)O)CCN[C@]1(C)C(=O)O` [Example 72, (2S,3R)-3-(3-boronopropyl)-2,3-dimethylpyrrolidine-2-carboxylic acid]: 119 nM. The same measure for `CC(C)[C@H](N)C(=O)N[C@H]1CN[C@H](C(=O)O)[C@]1(C)CCCB(O)O` [Example 70, (2S,3R,4R)-4-((S)-2-amino-3-methylbutanamido)-3-(3-boronopropyl)-3-methylpyrrolidine-2-carboxylic acid]: 83 nM. On to `O=C(O)C1CNCC1CCCB(O)O` (single isomer, unassigned) [Example 21A, 4-[3-(dihydroxyboranyl)propyl]pyrrolidine-3-carboxylic acid], for which the IC50 was > 10000 nM. With `C[C@]1(CCCB(O)O)[C@@H](C(=O)O)NC[C@@H]1C(F)F` [Example 81, (2S,3R,4R)-3-(3-boronopropyl)-4-(difluoromethyl)-3-methylpyrrolidine-2-carboxylic acid], the IC50 stood at 139 nM.

`O=C(O)[C@@H]1NCCC[C@H]1CCCB(O)O` [Example 1C, (2R,3R)-3-[3-(dihydroxyborany)propy]piperidinyl-2-carboxylic acid] displayed an IC50 of 83300 nM.

In turn, `O=C(O)[C@H]1NC[C@H](O)[C@@]1(F)CCCB(O)O` [Example 92B, (2R,3R,4S)-3-(3-boronopropyl)-3-fluoro-4-hydroxypyrrolidine-2-carboxylic acid] gave an IC50 of 124 nM. For `CN(C)C[C@@]1(CCCB(O)O)CCN[C@@H]1C(=O)O` [Example 86, (2S,3R)-3-(3-boronopropyl)-3-((dimethylamino)methyl)pyrrolidine-2-carboxylic acid], the midpoint of inhibition, the IC50, lay at 119 nM. The same measure for `CC(C)[C@@H](N)C(=O)N[C@H]1CN[C@H](C(=O)O)[C@@H]1CCCB(O)O` [Example 46, (2S,3R,4R)-4-((R)-2-amino-3-methylbutanamido)-3-(3-boronopropyl)pyrrolidine-2-carboxylic acid]: 35.4 nM; for `O=C(O)C1(CCN2CCCCC2)CC(CCB(O)O)CCN1` (centres unmarked) [Example 5, 4-[2-(dihydroxyboranyl)ethyl]-2-[2-(piperidin-1-yl)ethyl]piperidinyl-2-carboxylic acid]: 1330 nM. The result for `O=C(O)[C@H]1NCCC[C@@H]1CCCB(O)O` (single isomer, unassigned) [Example 1D] reads 22800 nM; that for `O=C(O)[C@H]1NC[C@H]1CCCB(O)O` [Example 8B, (2S,3R)-3-[3-(dihydroxyboranyl)propyl]azetidine-2-carboxylic acid], 447 nM; that for `CC[C@@H](C)[C@H](N)C(=O)N[C@H]1CN[C@H](C(=O)O)[C@@H]1CCCB(O)O` [Example 44, (2S,3R,4R)-4-((2S,3R)-2-amino-3-methylpentanamido)-3-(3-boronopropyl)pyrrolidine-2-carboxylic acid], 2 nM.

Regarding `NC1(C(=O)O)CNCC1(CO)CCCB(O)O` (single isomer, unassigned) [Example 94A, 3-amino-4-(3-boronopropyl)-4-(hydroxymethyl)pyrrolidine-3-carboxylic acid], the IC50 stood at 3080 nM.
